Results published in the supplement of paper PMC10307832.

Tests used:
Test in all cases: relative viability (nuclei count vs DMSO), 5 days (fraction); higher = more cells survive
RU-SKI 43 + Dasatinib = compound: CC[C@@H](C)CNCC(=O)N1CCC2=C([C@@H]1COC3=CC=CC(=C3)C)C=CS2 [RU-SKI 43] + Cc1nc(Nc2ncc(C(=O)Nc3c(C)cccc3Cl)s2)cc(N2CCN(CCO)CC2)n1 [Dasatinib] (partner 0.075 µM)
Procedure, shortened: (§1)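 After 5 days of treatment, lung cancer cells in 1536-well plates were fixed and stained in a single step (final 0.05% Triton X-100, 1% formaldehyde, 1 ug/ml Hoechst) and their nuclei counted on 4× images. Treatment had been applied by pin tool the day after seeding as one drug alone or as a fixed anchor-drug dose with five library-drug doses (not always all listed) in √10 steps. Relative viability is the nuclei count of treated wells divided by that of vehicle wells, and values are medians of duplicate plates.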

Irinotecan + Palbociclib = compound: CCc1c2c(nc3ccc(OC(=O)N4CCC(N5CCCCC5)CC4)cc13)-c1cc3c(c(=O)n1C2)COC(=O)[C@]3(O)CC [Irinotecan] + CC(=O)c1c(C)c2cnc(Nc3ccc(N4CCNCC4)cn3)nc2n(C2CCCC2)c1=O [Palbociclib] (partner 0.5 µM)
Procedure, shortened: as §1

Irinotecan + Navitoclax = compound: CCc1c2c(nc3ccc(OC(=O)N4CCC(N5CCCCC5)CC4)cc13)-c1cc3c(c(=O)n1C2)COC(=O)[C@]3(O)CC [Irinotecan] + CC1(C)CCC(c2ccc(Cl)cc2)=C(CN2CCN(c3ccc(C(=O)NS(=O)(=O)c4ccc(N[C@H](CCN5CCOCC5)CSc5ccccc5)c(S(=O)(=O)C(F)(F)F)c4)cc3)CC2)C1 [Navitoclax] (partner 0.5 µM)
Procedure, shortened: as §1

MK-8033 + AZD7762 = compound: Cn1cc(-c2cnc3ccc4ccc(CS(=O)(=O)NCc5ccccn5)cc4c(=O)c3c2)cn1 [MK-8033] + NC(=O)Nc1cc(-c2cccc(F)c2)sc1C(=O)N[C@H]1CCCNC1 [AZD7762] (partner 0.2 µM)
Procedure, shortened: as §1

Row | Cell Line | relative viability (RU-SKI 43 + Dasatinib; first compound 0.1 µM) | relative viability (RU-SKI 43 + Dasatinib; first compound 0.3162 µM) | relative viability (RU-SKI 43 + Dasatinib; first compound 1 µM) | relative viability (RU-SKI 43 + Dasatinib; first compound 3.162 µM) | relative viability (RU-SKI 43 + Dasatinib; first compound 10 µM) | relative viability (Irinotecan + Palbociclib; first compound 0.6325 µM) | relative viability (Irinotecan + Palbociclib; first compound 2 µM) | relative viability (Irinotecan + Palbociclib; first compound 6.325 µM) | relative viability (Irinotecan + Palbociclib; first compound 20 µM) | relative viability (Irinotecan + Navitoclax; first compound 2 µM) | relative viability (Irinotecan + Navitoclax; first compound 6.325 µM) | relative viability (Irinotecan + Navitoclax; first compound 20 µM) | relative viability (MK-8033 + AZD7762; first compound 0.02 µM) | relative viability (MK-8033 + AZD7762; first compound 0.06325 µM) | relative viability (MK-8033 + AZD7762; first compound 0.2 µM) | relative viability (MK-8033 + AZD7762; first compound 0.6325 µM) | relative viability (MK-8033 + AZD7762; first compound 2 µM) | relative viability (Irinotecan + Navitoclax; first compound 0.6325 µM)
1 | 201T | 0.565 | 0.547 | 0.624 | 0.627 | 0.56 | 0.403 | 0.343 | 0.265 | 0.22 | 1.12 | 0.729 | 0.451 | 0.7 | 0.481 | 0.607 | 0.683 | 0.618 | 
2 | A549 |  |  |  |  |  |  |  |  |  | 0.639 | 0.118 | 0.0499 |  |  |  |  |  | 0.997
3 | A-427 | 0.823 | 0.656 | 0.693 | 0.718 | 0.643 | 0.499 | 0.487 | 0.292 | 0.132 | 0.222 | 0.215 | 0.172 | 0.791 | 0.634 | 0.692 | 0.775 | 0.728 | 
4 | ABC-1 | 0.664 | 0.443 | 0.638 | 0.553 | 0.501 |  | 0.628 | 0.506 | 0.358 |  |  |  | 0.86 | 0.709 | 0.475 | 0.874 | 1.06 | 
5 | BEN | 0.333 | 0.253 | 0.474 | 0.272 | 0.316 | 0.45 | 0.448 | 0.387 | 0.534 | 0.0844 | 0.0937 | 0.248 | 0.82 | 0.634 | 0.76 | 0.599 | 0.788 | 0.0453
6 | CAL-12T | 0.404 | 0.41 | 0.348 | 0.38 | 0.413 | 0.316 | 0.344 | 0.251 | 0.197 | 1.43 | 0.491 | 0.38 | 0.594 | 0.66 | 0.59 | 0.573 | 0.567 | 1.32
7 | COR-L23 | 0.461 | 0.491 | 0.55 | 0.445 | 0.443 | 0.155 | 0.218 | 0.184 | 0.105 | 0.261 | 0.154 | 0.115 |  |  |  |  |  | 0.413
8 | COR-L 105 | 0.323 | 0.259 | 0.304 | 0.36 | 0.335 | 0.407 | 0.395 | 0.454 | 0.3 | 0.766 | 0.529 | 0.463 |  |  |  |  |  | 0.721
9 | Calu-6 |  |  |  |  |  |  |  |  |  | 0.431 | 0.212 | 0.0896 |  |  |  |  |  | 0.78
10 | ChaGo-K-1 | 0.651 | 0.532 | 0.574 | 0.492 | 0.502 | 0.256 | 0.247 | 0.22 | 0.203 | 0.784 | 0.407 | 0.33 | 0.872 | 0.921 | 0.857 | 0.932 | 0.82 | 
11 | EBC-1 |  |  |  |  |  |  |  |  |  | 0.406 | 0.378 | 0.133 |  |  |  |  |  | 0.304
12 | EKVX | 0.457 | 0.413 | 0.524 | 0.57 | 0.618 |  | 0.311 | 0.265 | 0.227 | 0.74 | 0.344 | 0.157 | 0.695 | 0.615 | 0.693 | 0.647 | 0.63 | 0.924
13 | EMC-BAC-2 | 0.334 | 0.299 | 0.362 | 0.317 | 0.296 | 0.387 | 0.346 | 0.337 | 0.248 | 0.36 | 0.202 | 0.226 | 1.12 | 0.979 | 1 | 1.01 | 1.09 | 0.705
14 | EPLC-272H | 0.267 | 0.351 | 0.317 | 0.317 | 0.321 |  | 0.22 | 0.304 | 0.264 | 0.17 | 0.144 | 0.209 | 0.207 | 0.144 | 0.201 | 0.167 | 0.19 | 0.658
15 | H3255 | 0.364 | 0.387 | 0.578 | 0.393 | 0.309 | 0.304 | 0.301 | 0.292 | 0.336 | 0.279 | 0.158 | 0.227 | 0.932 | 0.724 | 0.793 | 0.788 | 0.899 | 0.352
16 | HARA | 0.288 | 0.317 | 0.303 | 0.34 | 0.156 | 0.26 | 0.184 | 0.225 | 0.232 | 0.106 | 0.123 | 0.111 | 0.471 | 0.268 | 0.263 | 0.303 | 0.438 | 0.658
17 | HCC-15 | 0.709 | 0.635 | 0.689 | 0.633 | 0.64 | 0.41 | 0.346 | 0.182 | 0.141 | 0.209 | 0.147 | 0.167 | 1.06 | 1.31 | 0.978 | 1.31 | 1.18 | 0.5
18 | HCC-44 |  |  |  |  |  | 0.841 | 0.631 | 0.484 | 0.532 | 0.232 | 0.231 | 0.27 | 1.04 | 1.04 | 0.994 | 1.06 | 1.02 | 0.904
19 | HCC-78 | 0.457 | 0.349 | 0.607 | 0.319 | 0.369 | 0.474 | 0.363 | 0.37 | 0.347 | 0.525 | 0.202 | 0.191 | 0.712 | 0.517 | 0.719 | 0.557 | 0.566 | 0.75
20 | HCC-366 | 0.61 | 0.955 | 0.715 | 0.698 | 0.476 | 0.228 | 0.18 | 0.0611 | 0.0667 | 0.158 | 0.0415 | 0.0387 | 0.367 | 0.231 | 0.228 | 0.291 | 0.256 | 0.79
21 | HCC-827 | 0.249 | 0.267 | 0.319 | 0.298 | 0.331 | 0.438 | 0.304 | 0.167 | 0.206 | 0.278 | 0.244 | 0.237 | 0.259 |  | 0.196 | 0.207 | 0.238 | 0.591
